Test results from US20030166606A1, “5'-deoxy-n-(substituted oxycarbonyl)-5-fluorocytosine and derivatives thereof, method of preparing same, and anticancer composition comprising same as active ingredients” (priority 2003, published 2003).
Values after ≈ are worked out from the molar mass of the structure shown. Where two headings read alike, the source gives them in different places.

Tests used:
[1] = tested on: mouse tumor cell line L1210; test: Anticancer activity on L1210 in BDF1 mice, increased life span (Example 35, Table 5); format: in vivo; conditions: 15 times; for Average life day: control 17.8
Protocol: The mice used were 5-week-old BDF1 male mice (19 to 20 g) that were purchased from Charles River Japan, and adapted for 1 week. The breeding condition of the mice was set to a temperature of 24±2° C. and a humidity of […] Purified water for drinking water was supplied to the mice twice a week, and straws and cages were changed once a week. The experiment was performed using two mice per group. […] The drug was orally administered 24 hours after the cellular transplantation. […] The capecitabine was dissolved in dimethylsulfoxide and suspended in 0.5% carboxymethyl cellulose, and the compound of 2a was dissolved in distilled water. […] The anticancer activity was determined as increased life span.

[2] = tested on: mouse tumor cell line L1210; test: Anticancer activity on L1210 in BDF1 mice, increased life span (Example 6, Table 2); format: in vivo; conditions: for Increased life span (%) / Average survival date: 15 times; for Average survival date: control 17.8
Protocol: The mice used were 5-week-old BDF1 male mice (19 to 20 g) that were purchased from Charles River Japan, and adapted for 1 week. The breeding condition of the mice was set to a temperature of 24±2° C. and a humidity of 50±1° C. Purified water for drinking was supplied to the mice twice a week, and straws and cages were changed once a week. The experiment was performed using two mice per group. As the tumor cell line, an L1210 mouse blood tumor cell line was used, and the cell line was sub-cultured in a Falcon culture flask twice or three times, washed with a phosphorous buffer solution (pH 7.2), and quantified under a microscope to produce a cell suspension of 1×10^7/ml, and 100 (1×10^6) ml of the cell suspension was abdominally administered to the mouse using 1 ml of a disposable sterilized injector. The drug was orally administered 24 hours after the cellular transplantation. […] The samples were administered to the mice five times a week for 3 weeks, for a total of 15 times, starting 24 hours after the tumor cell administration. The anticancer activity was determined as increased life span to control.

[3] = tested on: mouse tumor cell line L1210; test: Anticancer activity on L1210 in BDF1 mice, increased life span (Example 34, Table 4); format: in vivo; conditions: for Average life maintenance day: control 8.8
Protocol: Capecitabine (5′-deoxy-N^4-(pentyloxycarbonyl)-5-fluorocytosine (in Formula 1, R^a=pentyl, R^b=hydrogen) which has good anticancer activity among. 5′-deoxy-N-alkyloxycarbonyl-5-fluorocytosine derivatives disclosed in European Patent No. 602454 was used for a control, 5′-deoxy-N^4-propazyloxycarbonyl-5-fluorocytosine-5′-carboxylic acid (Formula 2a) obtained from Example 3 was used for a sample, and anticancer activity to the mouse tumor cell line L1210 was measured.
The mice used were 5-week-old BDF1 male mice (19 to 20 g) that were purchased from Charles River Japan, and adapted for 1 week. The breeding condition of the mouse was set to a temperature of 24±2° C. and a humidity of […] Purified water for drinking was supplied to the mice twice a week, and straws and cages were changed once a week. The experiment was performed using two mice per group. As the tumor cell line, an L1210 mouse blood tumor cell line was used, the cell line was sub-cultured in a Falcon culture flask twice or three times, washed with a phosphorous buffer solution (pH 7.2), quantified under a microscope to produce a cell suspension of 1×10^7/ml, and 100 (1×10^6) […] of the cell suspension was abdominally administered to the mouse using 1 ml of a disposable sterilized injector. The drug was orally administered 24 hours after the cellular transplantation. The concentration of the administered capecitabine was 1.2, 5.7, 28.8, 144, and 720 mg/kg/100 μl for respective mice, and that of the compound of 2a of the present invention was 1.2, 5.8, 28.8 mg/kg/100 μl for respective mice. The capecitabine was dissolved in dimethylsulfoxide and suspended in 0.5% carboxymethyl cellulose, and the compound of 2a was dissolved in distilled water. The samples were administered to the mice five times a week for 3 weeks, for a total of 15 times, starting 24 hours after the tumor cell administration. The anticancer activity was determined as increased life span to control.

SK-OV-3 (ovarian cancer) = test: MTT cell toxicity to human cancer cells, SK-OV-3; format: cell-based; conditions: for IC50 Cancer cell line SK-OV-3: 72 hours, Table 3; for IC50: Homo sapiens, SK-OV-3, 72 hours
Protocol: (§1) For measuring in vitro anticancer activity of 5′-deoxy-N^4-propargyloxycarbonyl-5-fluorocytosine-5′-carboxylic acid (R^3=propargyl, compound of 2a) using 5-Fu as a reference compound, cell toxicity to human cancer cell was evaluated. The cancer cells used were A549 (lung cancer), HCT15 (colon cancer), SK-OV-3 (ovarian cancer), and SK-MEL-2 (melanoma cancer).
(§2) The cancer cells were incubated in an incubator with a constant humidity at 37° C. and 5% CO2, and an RPMI medium with the addition of 10% fetal bovine serum was used for a basic medium. In order to identify cell toxicity, the cancer cells in a logarithmic phase were inoculated at 2-5×10^4 cells per well of a 96-well plate, and incubated for 24 hours. A sample solution of 5-FU and 5′-deoxy-N^4-propargyloxycarbonyl-5-flurocytosine-5′-carboxylic acid was stepwisely added to the well and incubated for 72 hours. 20 μl of 5 mg/ml MTT reacting solution dissolved in a physiological saline solution was added to the well of the incubated plate and incubated for 4 hours. The produced formazan crystal was dissolved in dimethylsulfoxide and absorbance of each well was measured at 540 nm to calculate a number of living cells. The absorbance of the well with the medium and without cell was set to 0%, that of the well without the sample was set to 100%, and the concentration corresponding to 50% was called an IC50 (μg/ml) value.
(§3) In order to measure anticancer activity of 5′-deoxy-N-alkyloxycarbonyl-5-fluorocytosine-5′-carboxylic acid (compound of Formula 2a) of the present invention using 5-FU as a control, the cell toxicity to human cancer cells was measured. The human cancer cells used were A549 (lung cancer), HCT15 (colon cancer), SK-OV-3 (ovarian cancer), and SK-MEL-2 (melanoma cancer).
(§4) The cancer cells were cultured in an incubator with a constant humidity at 37° C. and 5% CO2, and an RPMI medium with 10% fetal bovine serum was used for a medium. In order to measure cell toxicity, the cancer cells in a logarithmic phase were inoculated into 2 to 5×10^4 cells per well of a 96-well plate, incubated for 24 hours, and a sample solution of a stepwise dilution of 5-FU and 5′-deoxy-N^4-pentyloxycarbonyl-5-fluorocytocine-5′-carboxylic acid were added thereto followed by incubating for 72 hours. 20 μl of 5 mg/ml of MTT reacting solution dissolved in a physiological saline solution was added to each well of the incubated plate, incubated for 4 hours, the produced formazan crystal was dissolved in dimethylsulfoxide, and the absorbance of each well was measured at a wavelength of 540 nm to calculate the number of living cells.

A549 (lung cancer) = test: MTT cell toxicity to human cancer cells, A549; format: cell-based; conditions: for IC50 Cancer cell line A549: 72 hours, Table 3
Protocol: as §1, §2, §3, §4

[4] = tested on: SK-MEL-2 (melanoma cancer); test: MTT cell toxicity to human cancer cells, SK-MEL-2; format: cell-based; conditions: for IC50 Cancer cell line SK-MEL2: 72 hours, Table 3
Protocol: as §1, §2, §3, §4

HCT15 (colon cancer) = test: MTT cell toxicity to human cancer cells, HCT15; format: cell-based; conditions: for IC50 Cancer cell line HCT15: 72 hours, Table 3; for IC50: Homo sapiens, HCT-15, 72 hours
Protocol: as §1, §2, §3, §4

Compound | Life maintenance rate (%) ([1]; 1.2 mg/kg/day oral) | Average life day ([1]; 1.2 mg/kg/day oral) | Life maintenance rate (%) ([1]; 5.8 mg/kg/day oral) | Average life day ([1]; 5.8 mg/kg/day oral) | Life maintenance rate (%) ([1]; 28.8 mg/kg/day oral) | Average life day ([1]; 28.8 mg/kg/day oral) | Increased life span (%) ([2]; 5.8 mg/kg/day oral) | Average survival date ([2]; 5.8 mg/kg/day oral) | Increased life span (%) ([2]; 28.8 mg/kg/day oral) | Average survival date ([2]; 28.8 mg/kg/day oral) | Increased life span (%) ([3]; 0.13 mmol/kg/day oral) | Average life maintenance day ([3]; 0.13 mmol/kg/day oral) | Increased life span (%) ([3]; 0.67 mmol/kg/day oral) | Average life maintenance day ([3]; 0.67 mmol/kg/day oral) | Increased life span (%) ([3]; 1.5 mmol/kg/day oral) | Average life maintenance day ([3]; 1.5 mmol/kg/day oral) | IC50 Cancer cell line SK-OV-3 (SK-OV-3 (ovarian cancer)) | IC50 Cancer cell line A549 (A549 (lung cancer)) | IC50 Cancer cell line SK-MEL2 [4] | IC50 Cancer cell line HCT15 (HCT15 (colon cancer)) | further results
CCCCCOC(=O)Nc1nc(=O)n([C@@H]2O[C@H](C)[C@@H](O)[C@H]2O)cc1F [Capecitabine, 5′-deoxy-N^4-(pentyloxycarbonyl)-5-fluorocytosine] | 6% | 18.9 days | 8% | 19.2 days | 14% | 20.2 days | 8% | 19.2 days | 14% | 20.2 days | 6.8% | 9.4 days | 9.1% | 9.6 days | 42.0% | 12.5 days |  |  |  |  | Life maintenance rate (%) ([1]; 144 mg/kg/day oral): 15%; Average life day ([1]; 144 mg/kg/day oral): 20.1 days; Life maintenance rate (%) ([1]; 720 mg/kg/day oral): 30%; Average life day ([1]; 720 mg/kg/day oral): 22.8 days; Increased life span (%) ([2]; 144 mg/kg/day oral): 15%; Average survival date ([2]; 144 mg/kg/day oral): 20.1 days; Increased life span (%) ([2]; 720 mg/kg/day oral): 30%; Average survival date ([2]; 720 mg/kg/day oral): 22.8 days
C#CCOC(=O)Nc1nc(=O)n([C@@H]2O[C@H](C(=O)O)[C@@H](O)[C@H]2O)cc1F [Example 3, 5′-deoxy-N^4-(propargyloxycarbonyl)-5-fluorocytosine-5′-carboxylic acid] | 8% | 20.1 days | 11% | 20.6 days | 23% | 21.9 days | 11% | 20.6 days | 23% | 21.9 days |  |  |  |  |  |  | 0.005 µg/mL (≈ 0.014 µM) | 0.005 µg/mL (≈ 0.014 µM) | 0.007 µg/mL (≈ 0.0196 µM) | 0.040 µg/mL (≈ 0.112 µM) | Increased life span (%) ([2]; 1.2 mg/kg/day oral): 8%; Average survival date ([2]; 1.2 mg/kg/day oral): 20.1 days; anticancer activity in vivo ([2]; summary of Table 2, animal experiment): good anticancer activity in vivo
O=c1[nH]cc(F)c(=O)[nH]1 [Example 5-FU, 5-fluorouracil, reference compound] |  |  |  |  |  |  |  |  |  |  |  |  |  |  |  |  |  |  |  |  | IC50 (SK-OV-3 (ovarian cancer); Table 1, read-out: IC50 Concentration (μg/ml) SK-OV-3): 0.03 µg/mL (≈ 0.231 µM); IC50 (SK-OV-3 (ovarian cancer); Table 3, read-out: IC50 Cancer cell line SK-OV-3): 0.03 µg/mL (≈ 0.231 µM); IC50 (A549 (lung cancer); Homo sapiens, A549, 72 hours, Table 3, read-out: IC50 Cancer cell line A549): 0.26 µg/mL (≈ 2 µM); Increased life span (%) ([3]; 0.15 mmol/kg/day): 62.5%; Average life maintenance day ([3]; 0.15 mmol/kg/day): 14.3 days; Increased life span (%) ([3]; 0.23 mmol/kg/day): 87.5%; Average life maintenance day ([3]; 0.23 mmol/kg/day): 16.5 days; IC50 ([4]; Homo sapiens, SK-MEL-2, 72 hours, Table 3, read-out: IC50 Cancer cell line SK-MEL2): 0.63 µg/mL (≈ 4.84 µM); IC50 (HCT15 (colon cancer); Table 1, read-out: IC50 Concentration (μg/ml) HCT15): 0.11 µg/mL (≈ 0.846 µM); IC50 (HCT15 (colon cancer); Table 3, read-out: IC50 Cancer cell line HCT15): 0.11 µg/mL (≈ 0.846 µM)
CCOC(=O)Nc1nc(=O)n([C@@H]2O[C@H](C(=O)O)[C@@H](O)[C@H]2O)cc1F [Example 25, 5′-deoxy-N^4-(ethyloxycarbonyl)-5-fluorocytosine-5′-carboxylic acid] |  |  |  |  |  |  |  |  |  |  |  |  |  |  |  |  | 0.16 µg/mL (≈ 0.461 µM) | 0.49 µg/mL (≈ 1.41 µM) | 0.16 µg/mL (≈ 0.461 µM) | 0.47 µg/mL (≈ 1.35 µM) | 
CCCCCOC(=O)Nc1nc(=O)n([C@@H]2O[C@H](C(=O)O)[C@@H](O)[C@H]2O)cc1F [Example 28, 5′-deoxy-N^4-(pentyloxycarbonyl)-5-fluorocytosine-5′-carboxylic acid] |  |  |  |  |  |  |  |  |  |  | 3.4% | 9.1 days | 28.4% | 11.3 days | 91.9% | 16.8 days | 0.03 µg/mL (≈ 0.0771 µM) | 0.17 µg/mL (≈ 0.437 µM) | 0.03 µg/mL (≈ 0.0771 µM) | 0.12 µg/mL (≈ 0.308 µM) | 
C=CCOC(=O)Nc1nc(=O)n([C@@H]2O[C@H](C(=O)O)[C@@H](O)[C@H]2O)cc1F [Example 30, 5′-deoxy-N^4-(allyloxycarbonyl)-5-fluorocytosine-5′-carboxylic acid] | 25% | 22.1 days | 39% | 24.8 days | 44% | 25.7 days |  |  |  |  |  |  |  |  |  |  | 0.008 µg/mL (≈ 0.0223 µM) | 0.04 µg/mL (≈ 0.111 µM) | 0.008 µg/mL (≈ 0.0223 µM) | 0.032 µg/mL (≈ 0.0891 µM) | 
